Experimental data from PubChem BioAssay AID1963871 (Molecular Pharmacology Branch, DTP, NCI, 2024).

Test system: KRAS-mutant PDC multicell tumor spheroid viability
Assay: Anticancer human tumor 521955-158-R2-J5-PDC patient-derived pancreatic carcinoma cell line growth inhibition [KRAS2]
Conditions: for viability, T/C: stronger effect = lower value
Description: Multicellular complex tumor spheroid response to RAS pathway inhibitors in combination with a targeted agents in patient-derived cell lines with oncogenic KRAS variants from multiple cancer types
A high-throughput screen of multi-cell type tumor spheroids was designed to identify active combinations of targeted small molecules and KRAS pathway inhibitors. Complex spheroids include a stromal component modeled by human endothelial cells (HUVEC) and fibroblasts modeled by human mesenchymal stem cells (MSCs). The concentration ranges selected for each drug and investigational agent were based upon clinically achievable concentrations if the clinical Cmax of the agent was known.
Compounds. The drugs and investigational agents: BI-3406 (NSC825286), BAY-293 (NSC824723), batoprotafib (TNO155; NSC825523), sotorasib (AMG 510; NSC818433), MRTX1257 (NSC819558), elimusertib (BAY 1895344; NSC800525), molibresib (GSK525762; NSC774829), temuterkib (LY3214996; NSC803410), venetoclax (NSC766270), alisertib (NSC759677), olaparib (NSC753686), talazoparib (NSC767125), erdafitinib (NSC781556), ipatasertib (NSC767898), cabozantinib (NSC761068), nintedanib (NSC756659), abemaciclib (NSC768073), docetaxel (NSC628503), trametinib (NSC758246), and sapanisertib (NSC764658) were obtained from the National Cancer Institute (NCI) Developmental Therapeutics Program Chemical Repository. The FDA-approved anticancer drug set is available from the Developmental Therapeutics Program. […] The stock solutions were prepared in dimethyl sulfoxide (DMSO, Sigma-Aldrich, St. Louis, MO, cat. D2650) at 800-fold the tested concentration and stored at -70 degrees C prior to their use. All drugs and investigational agents were tested over a range starting from a high concentration at or near the clinical Cmax and decreasing in half-log increments. If the clinical Cmax for an agent had not been determined, the highest concentration tested was 10 microM.
Cell Culture. All cells were maintained in an incubator at 37 degrees C and 5% CO2 with 95% humidity. The PDC lines were cultured according to standard operating procedures established by the NCI PDMR (https://pdmr.cancer.gov/sops/default.htm). Briefly, all PDCs were thawed and cultured in Matrigel-coated flasks prepared with a working solution of 1X Ham's F-12 nutrient mix, without supplementation (Invitrogen, Waltham, MA, cat. 11765054), 100 U/mL penicillin-streptomycin (Invitrogen, cat. 15140122), and 2.5% Matrigel (Corning Inc., Corning, NY, cat. 354248) for the first three passages. All PDCs were cultured in complete DMEM/F-12 media containing advanced DMEM/F-12 (Invitrogen, cat. 12634028), 4.9% defined fetal bovine serum, heat inactivated (HyClone Laboratories Inc., Logan, UT, cat. SH30070.03HI), 389 ng/mL hydrocortisone (Sigma-Aldrich, cat. H4001), 9.7 ng/mL human EGF recombinant protein (Invitrogen, cat. PHG0313), 23.4 microg/mL adenine (Sigma-Aldrich, cat. A2786), 97.3 U/mL penicillin-streptomycin (Invitrogen, cat. 15140122), 1.9 mM L-glutamine (Invitrogen, cat. 25030081), and 9.7 microM Y-27632 dihydrochloride (Tocris Bioscience, Bristol, United Kingdom, cat. 1254). The PDCs were cultured in complete DMEM/F12 media without 9.7 microM Y-27632 dihydrochloride for at least two passages prior to the screen. The established cell line HOP-62 was cultured in RPMI 1640 medium, HEPES (Invitrogen, cat. 22400105) with 10% defined fetal bovine serum (HyClone Laboratories Inc., cat. SH30070.03) and 2 mM L-glutamine (Invitrogen, cat. 25030081). The pooled donor HUVEC were cultured in endothelial cell growth medium 2 (PromoCell, Heidelberg, Germany, cat. C-22011) and the hMSC were cultured in mesenchymal stem cell growth medium 2 (PromoCell, cat. C-28009). For all experiments, HUVEC and hMSC were used at passages </=5, while the malignant cell lines were used at passages </=15. […]

[1] = curve of first compound, second compound 0.1 µM
[2] = curve of first compound, second compound 0.316 µM
[3] = curve of first compound, second compound 1 µM
[4] = curve of first compound, second compound 3.16 µM
[5] = curve of first compound, second compound 10 µM
[6] = second compound 0.1 µM, first compound 0.0316 µM
[7] = second compound 0.1 µM, first compound 0.1 µM
[8] = second compound 0.1 µM, first compound 0.316 µM
[9] = second compound 0.1 µM, first compound 1 µM
[10] = second compound 0.1 µM, first compound 3.16 µM
[11] = second compound 0.1 µM, first compound 10 µM
[12] = second compound 0.316 µM, first compound 0.0316 µM
[13] = second compound 0.316 µM, first compound 0.1 µM
[14] = second compound 0.316 µM, first compound 0.316 µM
[15] = second compound 0.316 µM, first compound 1 µM
[16] = second compound 0.316 µM, first compound 3.16 µM
[17] = second compound 0.316 µM, first compound 10 µM
[18] = second compound 1 µM, first compound 0.0316 µM
[19] = second compound 1 µM, first compound 0.1 µM
[20] = second compound 1 µM, first compound 0.316 µM
[21] = second compound 1 µM, first compound 1 µM
[22] = second compound 1 µM, first compound 3.16 µM
[23] = second compound 1 µM, first compound 10 µM
[24] = second compound 3.16 µM, first compound 0.0316 µM
[25] = second compound 3.16 µM, first compound 0.1 µM
[26] = second compound 3.16 µM, first compound 0.316 µM
[27] = second compound 3.16 µM, first compound 1 µM
[28] = second compound 3.16 µM, first compound 3.16 µM
[29] = second compound 3.16 µM, first compound 10 µM
[30] = second compound 10 µM, first compound 0.0316 µM
[31] = second compound 10 µM, first compound 0.1 µM
[32] = second compound 10 µM, first compound 0.316 µM
[33] = second compound 10 µM, first compound 1 µM
[34] = second compound 10 µM, first compound 3.16 µM
[35] = second compound 10 µM, first compound 10 µM
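Note: viability read after seven days of drug exposure.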

Row | Compound | IC50 [1] [nM] | IC50 [2] [nM] | IC50 [3] [nM] | IC50 [4] [nM] | IC50 [5] [nM] | viability, T/C [6] [%] | viability, T/C [7] [%] | viability, T/C [8] [%] | viability, T/C [9] [%] | viability, T/C [10] [%] | viability, T/C [11] [%] | viability, T/C [12] [%] | viability, T/C [13] [%] | viability, T/C [14] [%] | viability, T/C [15] [%] | viability, T/C [16] [%] | viability, T/C [17] [%] | viability, T/C [18] [%] | viability, T/C [19] [%] | viability, T/C [20] [%] | further results
1 | COC(=O)c1ccc2c(C(=Nc3ccc(N(C)C(=O)CN4CCN(C)CC4)cc3)c3ccccc3)c(O)[nH]c2c1 + CC1OCC2(CCN(c3cnc(Sc4ccnc(N)c4Cl)c(N)n3)CC2)C1N | 2490 | 1800 | 1070 | 1080 | 1120 | 79.4 | 80.7 | 72.9 | 80.8 | 42.5 | 0.38 | 66.3 | 70.5 | 60 | 85.4 | 30.1 | 0.37 | 46.8 | 46.7 | 55.9 | viability, T/C [21]: 57%; viability, T/C [22]: 26.6%; viability, T/C [23]: 0.4%; viability, T/C [24]: 56%; viability, T/C [25]: 58.6%; viability, T/C [26]: 58%; viability, T/C [27]: 51.7%; viability, T/C [28]: 23.2%; viability, T/C [29]: 0.51%; viability, T/C [30]: 61.1%; viability, T/C [31]: 58.3%; viability, T/C [32]: 64.3%; viability, T/C [33]: 55.4%; viability, T/C [34]: 0.64%; viability, T/C [35]: 0.38%
2 | C=CC(=O)N1CCN(c2nc(=O)n(-c3c(C)ccnc3C(C)C)c3nc(-c4c(O)cccc4F)c(F)cc23)C(C)C1 (stereo not given) |  |  |  |  |  |  |  |  |  |  |  |  |  |  |  |  |  |  |  |  | viability, T/C (compound 0.1 µM): 105% [middle of 17 runs]; viability, T/C (compound 10 µM): 66.7% [middle of 17 runs]; IC50 (compound alone, run of 08/19/2021): > 10000 nM; IC50 (compound alone, run of 08/26/2021): > 10000 nM; IC50 (compound alone, run of 09/02/2021): > 10000 nM
3 | CC1OCC2(CCN(c3cnc(Sc4ccnc(N)c4Cl)c(N)n3)CC2)C1N (stereo not given) + CNCc1ccccc1-c1csc(C(C)Nc2nc(C)nc3cc(OC)c(OC)cc23)c1 | > 10000 | > 10000 | > 10000 | < 31.6 | < 31.6 | 86.5 | 83.1 | 85.6 | 74.4 | 67 | 70.7 | 90.2 | 85.2 | 68.5 | 77.3 | 75.4 | 73.1 | 90.6 | 83.5 | 76.8 | viability, T/C [21]: 70%; viability, T/C [22]: 68.4%; viability, T/C [23]: 75%; viability, T/C [24]: 0.27%; viability, T/C [25]: 0.18%; viability, T/C [26]: 0.19%; viability, T/C [27]: 0.2%; viability, T/C [28]: 0.36%; viability, T/C [29]: 0.31%; viability, T/C [30]: 0.15%; viability, T/C [31]: 0.14%; viability, T/C [32]: 0.15%; viability, T/C [33]: 0.13%; viability, T/C [34]: 0.14%; viability, T/C [35]: 0.21%
4 | Cn1nccc1Nc1nccc(-c2cc3c(s2)C(C)(C)N(CCN2CCOCC2)C3=O)n1 + C=CC(=O)N1CCN(c2nc(=O)n(-c3c(C)ccnc3C(C)C)c3nc(-c4c(O)cccc4F)c(F)cc23)C(C)C1 | 1610 | 2020 | 2910 | 2960 | 1010 | 98.9 | 94.9 | 76.9 | 59.4 | 37.9 | 24.2 | 125 | 107 | 76.9 | 58.5 | 47 | 36.7 | 117 | 110 | 85.3 | viability, T/C [21]: 67.5%; viability, T/C [22]: 42.7%; viability, T/C [23]: 47.5%; viability, T/C [24]: 110%; viability, T/C [25]: 116%; viability, T/C [26]: 84.6%; viability, T/C [27]: 64.2%; viability, T/C [28]: 54.1%; viability, T/C [29]: 40.5%; viability, T/C [30]: 78.5%; viability, T/C [31]: 78.1%; viability, T/C [32]: 61.3%; viability, T/C [33]: 52.8%; viability, T/C [34]: 41.1%; viability, T/C [35]: 43.1%
